Measured values from ChEMBL document CHEMBL3808348, “Rational Design, Synthesis, and Biological Evaluation of 7-Azaindole Derivatives as Potent Focused Multi-Targeted Kinase Inhibitors” (J Med Chem, 2016).

Legend:
[1] = target: Bcr/Abl fusion protein (Homo sapiens, UniProt P00519, T315I); type: cell-based, BaF3
Description: Inhibition of human BCR-ABL T315I mutant expressed in mouse BAF3 cells assessed as inhibition of cell proliferation after 72 hrs by MTT assay

[2] = Oral bioavailability in Swiss mouse plasma at 20 mg/kg by LC/MS/MS analysis; type: ADME, organism-based
[3] = target: MAP kinase-activated protein kinase 2 (Homo sapiens) (UniProt P49137); details: 100 nM
Description: Inhibition of His-tagged full length human recombinant MAPKAPK2 expressed in Escherichia coli using Fluorescein-CREBtide as substrate at 100 nM

[4] = target: Vascular endothelial growth factor receptor 2 (Homo sapiens) (UniProt P35968); details: 100 nM
Description: Inhibition of His-tagged human recombinant VEGFR2 (789 to 1356 residues) expressed in baculovirus using Fluorescein-Poly GT as substrate at 100 nM

[5] = target: Mast/stem cell growth factor receptor Kit (Homo sapiens) (UniProt P10721); details: 100 nM
Description: Inhibition of His-tagged human recombinant cKIT expressed in baculovirus using Fluorescein-Poly GT as substrate at 100 nM

[6] = target: Ephrin type-A receptor 4 (Homo sapiens) (UniProt P54764); details: 100 nM
Description: Inhibition of GST-tagged human recombinant EPHA4 (616 to 887 residues) expressed in baculovirus using Fluorescein-Poly GT as substrate at 100 nM

[7] = target: 3-phosphoinositide-dependent protein kinase 1 (Homo sapiens) (UniProt O15530); details: 100 nM
Description: Inhibition of PDK1 (unknown origin) at 100 nM

[8] = target: Aurora kinase C (Homo sapiens) (UniProt Q9UQB9); details: 100 nM
Description: Inhibition of full length His-tagged human recombinant Aurora C expressed in baculovirus using Fluorescein-CREBtide as substrate at 100 nM

[9] = organism: Homo sapiens; details: 100 nM
Description: Inhibition of CK1 (unknown origin) at 100 nM

[10] = target: Inhibitor of nuclear factor kappa-B kinase subunit beta (Homo sapiens) (UniProt O14920); details: 100 nM
Description: Inhibition of GST-tagged full length human recombinant IKKbeta expressed in baculovirus using Fluorescein-Poly GT as substrate at 100 nM

[11] = target: CDK9/cyclin T1 (Homo sapiens) (UniProt O60563+P50750); details: 100 nM
Description: Inhibition of CDK9/cyclinT1 (unknown origin) at 100 nM

[12] = target: Calcium/calmodulin-dependent protein kinase type II subunit delta (Homo sapiens) (UniProt Q13557); details: 100 nM
Description: Inhibition of full length His-tagged human recombinant CaMK2 delta expressed in baculovirus using Fluorescein-CREBtide as substrate at 100 nM

[13] = target: Serine/threonine-protein kinase PAK 2 (Homo sapiens) (UniProt Q13177); details: 100 nM
Description: Inhibition of GST-tagged full length human recombinant PAK2 expressed in baculovirus at 100 nM

[14] = Antiproliferative activity against human PC3 cells after 72 hrs by MTT assay; type: functional, cell-based; details: PC-3, 72 h
[15] = target: Tyrosine-protein kinase FRK (Homo sapiens, UniProt P42685); details: 100 nM
Description: Inhibition of GST-tagged full length human recombinant FRK expressed in baculovirus using Fluorescein-Poly GT as substrate at 100 nM

[16] = target: Tyrosine-protein kinase Yes (Homo sapiens, UniProt P07947); experiment: Inhibition of GST-tagged full length human recombinant YES expressed in baculovirus using Fluorescein-Poly GT as substrate at 100 nM
[17] = target: Proto-oncogene tyrosine-protein kinase Src (Homo sapiens, UniProt P12931); experiment: Inhibition of full length His-tagged human recombinant cSRC expressed in baculovirus using Fluorescein-Poly GT as substrate at 100 nM
[18] = target: Tyrosine-protein kinase Lck (Homo sapiens, UniProt P06239); experiment: Inhibition of His-tagged full length human recombinant LCK expressed in baculovirus using Fluorescein-Poly GT as substrate

Inhibitor of nuclear factor kappa-B kinase subunit beta (Homo sapiens), sequence (O14920 whole entry): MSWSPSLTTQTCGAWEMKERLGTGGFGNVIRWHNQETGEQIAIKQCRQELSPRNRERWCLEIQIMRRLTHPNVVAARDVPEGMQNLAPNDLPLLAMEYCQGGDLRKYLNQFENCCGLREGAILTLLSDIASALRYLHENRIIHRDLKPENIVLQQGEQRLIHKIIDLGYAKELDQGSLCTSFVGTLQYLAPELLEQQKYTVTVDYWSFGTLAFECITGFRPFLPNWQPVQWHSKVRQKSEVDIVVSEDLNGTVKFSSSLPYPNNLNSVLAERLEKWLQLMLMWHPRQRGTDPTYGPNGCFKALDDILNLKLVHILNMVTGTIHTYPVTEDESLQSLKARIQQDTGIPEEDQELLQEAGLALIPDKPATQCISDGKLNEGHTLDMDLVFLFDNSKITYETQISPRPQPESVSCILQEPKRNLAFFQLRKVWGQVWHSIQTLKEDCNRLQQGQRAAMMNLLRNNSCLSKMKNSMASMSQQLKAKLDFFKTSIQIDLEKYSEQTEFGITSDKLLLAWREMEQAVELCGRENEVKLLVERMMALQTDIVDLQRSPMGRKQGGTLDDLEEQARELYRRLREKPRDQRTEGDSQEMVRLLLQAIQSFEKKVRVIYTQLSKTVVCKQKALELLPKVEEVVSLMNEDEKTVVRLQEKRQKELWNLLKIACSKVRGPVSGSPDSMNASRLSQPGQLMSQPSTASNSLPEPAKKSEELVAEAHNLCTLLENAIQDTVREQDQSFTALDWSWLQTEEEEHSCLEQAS
Tyrosine-protein kinase FRK, sequence (P42685 whole entry): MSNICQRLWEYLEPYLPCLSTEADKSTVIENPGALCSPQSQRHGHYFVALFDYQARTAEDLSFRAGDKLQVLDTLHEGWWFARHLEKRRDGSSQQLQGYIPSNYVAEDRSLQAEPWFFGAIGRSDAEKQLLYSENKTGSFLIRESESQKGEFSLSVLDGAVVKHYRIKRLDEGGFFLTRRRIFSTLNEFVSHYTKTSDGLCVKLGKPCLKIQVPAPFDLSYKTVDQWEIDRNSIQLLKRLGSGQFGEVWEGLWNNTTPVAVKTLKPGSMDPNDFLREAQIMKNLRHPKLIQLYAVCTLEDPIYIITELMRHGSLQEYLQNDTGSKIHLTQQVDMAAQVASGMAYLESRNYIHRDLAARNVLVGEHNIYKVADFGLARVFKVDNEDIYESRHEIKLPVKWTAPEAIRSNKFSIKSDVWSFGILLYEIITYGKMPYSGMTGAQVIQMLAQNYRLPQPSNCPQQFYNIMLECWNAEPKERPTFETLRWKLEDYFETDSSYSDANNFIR
Mast/stem cell growth factor receptor Kit (Homo sapiens), sequence (P10721 whole entry): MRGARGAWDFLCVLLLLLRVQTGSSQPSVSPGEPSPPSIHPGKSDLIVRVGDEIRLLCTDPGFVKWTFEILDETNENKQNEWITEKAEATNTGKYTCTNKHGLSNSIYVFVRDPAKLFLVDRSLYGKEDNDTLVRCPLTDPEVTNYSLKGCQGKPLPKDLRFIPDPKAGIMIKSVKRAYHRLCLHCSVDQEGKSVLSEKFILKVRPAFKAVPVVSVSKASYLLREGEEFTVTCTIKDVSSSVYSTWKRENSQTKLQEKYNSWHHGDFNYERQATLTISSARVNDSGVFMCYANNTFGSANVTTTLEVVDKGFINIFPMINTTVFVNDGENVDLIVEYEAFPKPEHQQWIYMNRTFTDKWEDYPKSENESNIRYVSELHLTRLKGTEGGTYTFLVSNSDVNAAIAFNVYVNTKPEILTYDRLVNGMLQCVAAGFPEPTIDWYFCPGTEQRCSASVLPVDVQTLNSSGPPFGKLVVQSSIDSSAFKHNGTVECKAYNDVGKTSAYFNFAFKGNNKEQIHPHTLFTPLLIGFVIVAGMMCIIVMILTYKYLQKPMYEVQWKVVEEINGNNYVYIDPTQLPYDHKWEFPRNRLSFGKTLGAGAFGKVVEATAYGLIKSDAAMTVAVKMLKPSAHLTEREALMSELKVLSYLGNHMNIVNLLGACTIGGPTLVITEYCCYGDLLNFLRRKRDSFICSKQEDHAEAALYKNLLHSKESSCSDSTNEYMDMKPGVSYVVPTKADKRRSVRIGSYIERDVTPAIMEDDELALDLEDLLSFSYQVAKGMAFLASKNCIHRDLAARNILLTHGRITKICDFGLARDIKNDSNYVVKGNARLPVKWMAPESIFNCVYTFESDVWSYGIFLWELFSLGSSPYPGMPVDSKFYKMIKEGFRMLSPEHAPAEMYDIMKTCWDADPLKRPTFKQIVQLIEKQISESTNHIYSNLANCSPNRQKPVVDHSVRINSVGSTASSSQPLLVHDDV
Serine/threonine-protein kinase PAK 2 (Homo sapiens), sequence (Q13177 whole entry): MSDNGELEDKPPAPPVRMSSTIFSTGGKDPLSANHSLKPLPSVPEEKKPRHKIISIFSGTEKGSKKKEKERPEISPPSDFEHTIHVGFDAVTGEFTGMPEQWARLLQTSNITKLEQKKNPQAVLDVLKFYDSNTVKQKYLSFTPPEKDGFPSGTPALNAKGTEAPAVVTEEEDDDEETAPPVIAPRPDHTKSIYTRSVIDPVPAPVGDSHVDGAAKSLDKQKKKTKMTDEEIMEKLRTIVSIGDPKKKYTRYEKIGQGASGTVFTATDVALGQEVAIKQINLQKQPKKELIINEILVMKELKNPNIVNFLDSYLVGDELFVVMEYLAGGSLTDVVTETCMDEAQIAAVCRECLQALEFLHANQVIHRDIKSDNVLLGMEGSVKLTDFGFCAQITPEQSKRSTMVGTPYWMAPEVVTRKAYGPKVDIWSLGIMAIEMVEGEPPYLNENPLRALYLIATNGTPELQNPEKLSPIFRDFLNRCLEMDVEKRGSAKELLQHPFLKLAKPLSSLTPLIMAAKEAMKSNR
Calcium/calmodulin-dependent protein kinase type II subunit delta (Homo sapiens), sequence (Q13557 whole entry): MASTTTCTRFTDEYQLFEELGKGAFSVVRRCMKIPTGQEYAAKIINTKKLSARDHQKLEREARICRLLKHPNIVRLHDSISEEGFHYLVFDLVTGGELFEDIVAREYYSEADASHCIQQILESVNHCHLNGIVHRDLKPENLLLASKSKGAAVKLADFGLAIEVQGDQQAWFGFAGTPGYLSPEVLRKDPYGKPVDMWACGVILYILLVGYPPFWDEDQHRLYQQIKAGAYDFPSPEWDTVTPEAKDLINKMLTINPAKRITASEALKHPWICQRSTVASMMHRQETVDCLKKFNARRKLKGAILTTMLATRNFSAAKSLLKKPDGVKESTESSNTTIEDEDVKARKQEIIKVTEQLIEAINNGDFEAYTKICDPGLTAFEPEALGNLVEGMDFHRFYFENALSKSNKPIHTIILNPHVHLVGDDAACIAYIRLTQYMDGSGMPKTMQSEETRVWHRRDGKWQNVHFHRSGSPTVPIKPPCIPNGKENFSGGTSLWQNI
Aurora kinase C (Homo sapiens), sequence (Q9UQB9 whole entry): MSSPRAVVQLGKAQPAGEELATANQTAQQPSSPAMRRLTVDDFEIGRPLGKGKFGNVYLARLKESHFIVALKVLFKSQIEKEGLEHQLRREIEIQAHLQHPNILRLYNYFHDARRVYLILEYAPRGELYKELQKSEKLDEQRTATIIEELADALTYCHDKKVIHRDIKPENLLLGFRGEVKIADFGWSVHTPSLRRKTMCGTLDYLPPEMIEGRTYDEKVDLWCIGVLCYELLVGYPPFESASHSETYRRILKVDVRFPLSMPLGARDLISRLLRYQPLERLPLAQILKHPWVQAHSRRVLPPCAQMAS
3-phosphoinositide-dependent protein kinase 1 (Homo sapiens), sequence (O15530 whole entry): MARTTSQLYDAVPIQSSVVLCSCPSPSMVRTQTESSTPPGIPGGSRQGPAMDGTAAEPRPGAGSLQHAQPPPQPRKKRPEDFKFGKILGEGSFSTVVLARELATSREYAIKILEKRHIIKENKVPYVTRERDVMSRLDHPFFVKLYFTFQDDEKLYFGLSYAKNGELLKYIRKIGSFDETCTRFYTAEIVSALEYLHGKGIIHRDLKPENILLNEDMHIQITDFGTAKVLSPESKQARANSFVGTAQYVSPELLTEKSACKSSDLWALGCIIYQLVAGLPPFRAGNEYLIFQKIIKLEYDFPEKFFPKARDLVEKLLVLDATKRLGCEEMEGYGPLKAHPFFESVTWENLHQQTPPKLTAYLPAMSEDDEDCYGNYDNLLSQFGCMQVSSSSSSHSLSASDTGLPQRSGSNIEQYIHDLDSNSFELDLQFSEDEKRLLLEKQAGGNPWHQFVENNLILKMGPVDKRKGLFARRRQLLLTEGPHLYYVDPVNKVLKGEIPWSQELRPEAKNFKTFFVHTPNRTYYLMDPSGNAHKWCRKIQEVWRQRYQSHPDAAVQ
Tyrosine-protein kinase Yes, sequence (P07947 2-543 limits assumed): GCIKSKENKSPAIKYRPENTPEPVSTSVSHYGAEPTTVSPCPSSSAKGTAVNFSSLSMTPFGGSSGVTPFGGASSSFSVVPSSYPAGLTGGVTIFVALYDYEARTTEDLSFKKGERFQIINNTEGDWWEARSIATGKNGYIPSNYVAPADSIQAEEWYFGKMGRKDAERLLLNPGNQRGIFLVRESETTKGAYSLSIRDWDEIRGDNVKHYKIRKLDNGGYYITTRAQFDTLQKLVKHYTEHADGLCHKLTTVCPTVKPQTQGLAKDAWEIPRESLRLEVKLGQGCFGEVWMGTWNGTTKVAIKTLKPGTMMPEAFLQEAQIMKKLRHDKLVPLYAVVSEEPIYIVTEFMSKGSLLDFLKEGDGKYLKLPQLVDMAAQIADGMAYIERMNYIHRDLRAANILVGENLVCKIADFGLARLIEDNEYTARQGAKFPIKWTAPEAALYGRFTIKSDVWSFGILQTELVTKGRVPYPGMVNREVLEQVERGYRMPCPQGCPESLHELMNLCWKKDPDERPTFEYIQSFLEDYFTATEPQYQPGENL

COC(=O)c1cc2cc(NCc3cc(NC(=O)c4cc(-n5cnc(C)c5)cc(C(F)(F)F)c4)ccc3C)cnc2[nH]1
EC50 [1]: 1.8 nM
bioavailability [2]: 47%
inhibition [3]: < 40%
inhibition [4]: < 40%
inhibition [5]: < 40%
inhibition [6]: < 40%
inhibition [7]: < 40%
inhibition [8]: < 40%
inhibition [9]: < 40%
inhibition [10]: < 40%
inhibition [11]: < 40%
inhibition [12]: < 40%
inhibition [13]: < 40%
EC50 [14]: 152 nM
inhibition [15]: < 40%
inhibition [16]: > 80%
inhibition [17]: 49%
IC50 [18]: 69 nM
